Measurements: US7906508B2, “3,4-dihydrobenzoxazine compounds and inhibitors of vanilloid receptor subtype 1 (VRI) activity” (Japan Tobacco Inc., priority 2005, dated 2011)
Like-named read-outs stand apart in the source and are kept apart here.

Columns and labels:
human VR1 = biological target: T1, human VR1 (Homo sapiens, UniProt Q8NER1); assay: Inhibition of Ca2+ entry in cells caused by proton (Test Example [1]); assay type: cell-based; conditions: for IC50: rat glioma (C6BU1) cells stably expressing human VR1, proton stimulation, pH 5.7, Ca2+ uptake, Fura 2-AM, read-out: VRI Inhibition IC50
T1 construct: expressed in transfected cells
Method: An inhibitory effect on VR1 activity was evaluated by measuring Ca^2+ uptake in cells.
Rat glioma (C6BU1) cells stably expressing human VR1 were suspended in 20 mM MES buffer (at pH 6.8, contg. 20 mM 2-morpholinoethanesulfonate (referred to as MES hereinafter), 115 mM NaCl, 5 mM KCl, 1 mM MgCl2 and 14 mM D-glucose) to make a cell density of 1×10^6 cells/mL. A fluorescent dye, Fura 2-AM solution (Dojindo Corporate, Cat. No. 343-05401) was added to the suspension to make a 5 μM concentration thereof. Further, Pluronic F-127 (Wako Pure Chemical Industries, Ltd., Cat. No. P6866) was added to make a 0.1% content thereof. Then, the suspension was incubated at 37° C. for 30 min. The cells were harvested and washed two times with 20 mM MES buffer. The cells were suspended again to make a cell density of 5×10^5 cells/mL. A 500-μL portion of the suspension was taken with a cuvette (MC MEDICAL, INC., Cat. No. SSR3121), to which 10 μL of 20 mM MES buffer containing 250 mM CaCl2 was added to incorporate Ca^2+ into the cells. At the same time, 5 μL of a test compound solution (in a range of 100 μM to 10 nM in DMSO) was also added to provide a final concentration thereof in a range of 1 μM to 0.1 nM. Alternatively, 5 μL of DMSO was added as control to provide a final concentration of 1% DMSO. The suspension was set in an intracellular ionometer (CAF-110; JASCO) 10 min after those additions. The cells were stimulated with protons by addition of 50 μL of 20 mM MES buffer at pH 1.1 to the suspension to set its pH at 5.7. The activity of the test compound was determined as a difference between the minimum of fluorescence intensity before agonist stimulation and its maximum after the stimulation. The value of IC50 was derived from percentage of inhibition by the test compound compared with the control.

[1] = Metabolic stability test in liver S9 (Test Example [2]); assay type: in vitro ADME, human; conditions: for Human liver S9 remaining ratio: human liver S9 2 mg protein/mL, 37° C., 60 minutes of incubation vs 0 minute; for metabolic stability in human liver S9 (in words): summary judgement
Method: Human liver S9 (final concentration: 2 mg protein/mL) was suspended in 100 mM potassium phosphate buffer (at pH 7.4, which contained β-nicotinamide adenine dinucleotide phosphate: 1.3 mM, D-glucose-6-phosphate: 3.3 mM, magnesium chloride: 3.3 mM and glucose-6-phosphate dehydrogenase: 0.45 U/mL) and further mixed with the test compound dissolved in DMSO. The mixture was incubated at 37° C. for 0 and 60 minutes and then supplemented with acetonitrile containing formic acid (final concentration 0.1%). The test compound (uncharged) in a supernatant after centrifugation was measured using high-performance liquid chromatography/mass spectrometry (LC/MS). A remaining ratio (%) was calculated from the obtained measurement value according to the following equation: Remaining ratio (%)=(amount of test compound after 60 minutes of incubation/amount of test compound on 0 minute of incubation)×100

[2] = In-vitro membrane permeability test (Test Example [3]); assay type: in vitro ADME; conditions: human, Caco-2, Caco2 cells, 2 hours
Method: (§1) 10 mM DMSO solution of the test compound was diluted with Hanks buffer (pH 6.5) to 25 μM to make a test compound solution. 300 μL of Apical buffer (Hanks buffer (pH 6.5)) and 1 mL of Basolateral buffer (4.5% BSA-containing Hanks buffer (pH 7.4)) were added to the apical side (mucosal side) and the basolateral side (serosal side), respectively, of Caco2 cells (cells cultured for 6 days after seeding) seeded onto a plate for permeability test (BIOCOAT HTS Caco2 Assay system: BD Biosciences), and preincubated at 37° C. for 20 minutes, followed by measurement of a transepithelial electrical resistance value. Each buffer on the apical side and basolateral side was removed by aspiration. Then, 300 μL of the test compound solution and 1 mL of Basolateral buffer were added to the apical side and the basolateral side, respectively, and incubated at 37° C. for 2 hours with stirring at 60 rpm. Then, sampling was performed from each of the apical side and the basolateral side, and the sample was supplemented with acetonitrile and centrifuged. The test compound (uncharged) in the supernatant was measured using high-performance liquid chromatography/tandem mass spectrometry (LC/MS/MS: Quantum, Thermo Quest).
(§2) A membrane permeability coefficient (Papp) was calculated according to the following equation: Papp(cm/sec.)=(dx/dt)/(A×C0)
(§3) (wherein dx is the amount of the test compound (uncharged) on the basolateral side after incubation, dt is an incubation time, A is the surface area of the cell membrane, and C0 is the initial concentration of the test compound on the apical side.)

Caco2 cells = assay: as above; assay type: in vitro ADME; conditions: summary judgement
Method: as §1, §2, §3

[3] = Stability test in Japanese Pharmacopoeia 1 solution (Test Example [4]); assay type: physicochemical; conditions: for remaining ratio in Japanese Pharmacopoeia 1 solution: CH3CN : Japanese Pharmacopoeia 1 solution 3:7, 0.05 mM, 40° C., after 8 hours vs 0 hour
Method: The test compound was dissolved in a mixed solution of CH3CN and Japanese Pharmacopoeia 1 solution (volume ratio 3:7) and adjusted in a vial for HPLC to a concentration of 0.05 mM. The test compound was measured by HPLC at 40° C. after 0 and 8 hours. The measurement value on 0 hour was defined as 100% to determine the remaining ratio of the test compound after 8 hours.
The “Japanese Pharmacopoeia 1 solution” here represents a solution in which 21 ml of concentrated hydrochloric acid was added to 6 g of sodium chloride and further adjusted to 3 L with distilled water.

[4] = apical (pH 6.5) to basolateral (pH 7.4, 4.5% BSA), 25 μM, 37° C., read-out: membrane permeability Papp
[5] = compared with the compound of Comparative Example 8
[6] = apical to basolateral, read-out: membrane permeability in terms of the Papp values

T1 sequence (Q8NER1 whole entry): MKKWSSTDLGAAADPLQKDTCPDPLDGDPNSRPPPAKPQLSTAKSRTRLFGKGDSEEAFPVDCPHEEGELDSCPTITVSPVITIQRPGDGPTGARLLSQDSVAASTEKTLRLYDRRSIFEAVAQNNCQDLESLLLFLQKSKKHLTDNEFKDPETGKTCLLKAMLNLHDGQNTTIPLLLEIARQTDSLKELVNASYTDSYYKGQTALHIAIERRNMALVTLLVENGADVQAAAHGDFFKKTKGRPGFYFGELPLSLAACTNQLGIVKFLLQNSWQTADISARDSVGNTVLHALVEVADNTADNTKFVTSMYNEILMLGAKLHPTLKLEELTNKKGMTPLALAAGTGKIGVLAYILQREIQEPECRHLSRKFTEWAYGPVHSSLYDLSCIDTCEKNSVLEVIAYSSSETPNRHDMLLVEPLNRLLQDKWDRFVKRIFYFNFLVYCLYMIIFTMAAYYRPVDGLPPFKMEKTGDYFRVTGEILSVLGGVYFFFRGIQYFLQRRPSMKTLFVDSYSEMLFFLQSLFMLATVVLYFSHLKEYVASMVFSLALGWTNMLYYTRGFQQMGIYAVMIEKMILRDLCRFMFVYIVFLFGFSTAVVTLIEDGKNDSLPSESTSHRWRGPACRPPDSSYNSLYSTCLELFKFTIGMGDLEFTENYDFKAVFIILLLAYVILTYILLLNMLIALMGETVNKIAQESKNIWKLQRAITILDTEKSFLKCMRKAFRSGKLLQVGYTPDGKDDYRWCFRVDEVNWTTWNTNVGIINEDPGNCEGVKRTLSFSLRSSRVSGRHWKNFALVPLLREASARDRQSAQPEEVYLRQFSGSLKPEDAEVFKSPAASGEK

Compound	IC50 (human VR1) [nM]	Human liver S9 remaining ratio [1] [%]	Papp A→B at 2 h, 25 μM [2, 4] [×10⁻⁶ cm/s]	membrane permeability (in words) (Caco2 cells)	remaining ratio in Japanese Pharmacopoeia 1 solution [3] [%]	value of IC50 relative to Comparative Example 8 (human VR1; [5])	liver S9 remaining ratio relative to Comparative Example 8 [1, 5]	Papp A→B at 2 h, 25 μM [2, 6] [×10⁻⁶ cm/s]	metabolic stability in human liver S9 (in words) [1]	stability in gastric juice (in words) ([3]; inferred from stability in Japanese Pharmacopoeia 1 solution)
Cc1ccc(N2c3cccc(C(=O)Nc4ccc(OC(C)C)c(F)c4)c3OC[C@@H]2CO)nc1 [Comparative Example 11]	0.36	66.7	40.3	high membrane permeability						
Cc1ccc(N2c3cccc(C(=O)Nc4ccc(C(F)(F)F)nc4)c3OC[C@@H]2CO)nc1 [Comparative Example 8]	7	62.9	43.1	high membrane permeability						
Cc1ccc(N2c3cccc(C(=O)Nc4ccc(OC(C)(C)C)nc4)c3OC[C@@H]2CO)nc1 [Example 1-5, (S)-4-(5-picoline-2-yl)-3-hydroxymethyl-N-(2-tert-butoxypyridine-5-yl)-3,4-dihydro-2H-benzo[1,4]oxazine-8-carboxamide]	0.66	82.2	38.1					≥ 30		
Cc1ccc(N2c3cccc(C(=O)Nc4ccc(OC(F)(F)F)c(Cl)c4)c3OC[C@@H]2CO)nc1 [Comparative Example 10]	0.04	82.3	6.7					6.7	excellent metabolic stability	
Cc1ccc(N2c3cccc(C(=O)Nc4ccc(C(F)(F)F)c(F)c4)c3OC[C@@H]2CO)nc1 [Comparative Example 9]	0.12	65.9	19.4							
O=C(Nc1ccc(OC(F)(F)F)cc1)c1cccc2c1OCCN2c1ncc(CO)cc1Cl [Comparative Example 1]	3	86.3	27.1						excellent metabolic stability	
Cc1ccc(N2c3cccc(C(=O)Nc4ccc(OCC(C)C)nc4)c3OC[C@@H]2CO)nc1 [Example 1-7, (S)-4-(5-picoline-2-yl)-3-hydroxymethyl-N-(2-isobutoxypyridine-5-yl)-3,4-dihydro-2H-benzo[1,4]oxazine-8-carboxamide]	0.14	50.4	37.9					≥ 30		
Cc1ccc(N2c3cccc(C(=O)Nc4ccc(OC(C)(C)C)c(F)c4)c3OC[C@@H]2CO)nc1 [Comparative Example 13]	0.12	91.3	28.6		62.1				excellent metabolic stability	inferior stability in gastric juice

Other lines, results leading:

IC50 (human VR1) [nM]	Human liver S9 remaining ratio [1] [%]	Papp A→B at 2 h, 25 μM [2, 4] [×10⁻⁶ cm/s]	membrane permeability (in words) (Caco2 cells)	remaining ratio in Japanese Pharmacopoeia 1 solution [3] [%]	value of IC50 relative to Comparative Example 8 (human VR1; [5])	liver S9 remaining ratio relative to Comparative Example 8 [1, 5]	Papp A→B at 2 h, 25 μM [2, 6] [×10⁻⁶ cm/s]	metabolic stability in human liver S9 (in words) [1]	stability in gastric juice (in words) ([3]; inferred from stability in Japanese Pharmacopoeia 1 solution)	Compound
0.038		13.6		101						Cc1ccc(N2c3cccc(C(=O)Nc4cc(F)c(OCC(F)(F)F)c(F)c4)c3OC[C@@H]2CO)nc1 [Example 1-8, (S)-4-(5-picoline-2-yl)-3-hydroxymethyl-N-[3,5-difluoro-4-(2,2,2-trifluoroethoxy)phenyl]-3,4-dihydro-2H-benzo[1,4]oxazine-8-carboxamide]
0.15		37.5		100	about 50 times	about 1.5 times	≥ 30			Cc1ccc(N2c3cccc(C(=O)Nc4ccc(OCC(F)(F)F)nc4)c3OC[C@@H]2CO)nc1 [Example 1-6, (S)-4-(5-picoline-2-yl)-3-hydroxymethyl-N-[2-(2,2,2-trifluoroethyloxy)pyridine-5-yl]-3,4-dihydro-2H-benzo[1,4]oxazine-8-carboxamide]
0.019	39.7	30.2					≥ 30			Cc1ccc(N2c3cccc(C(=O)Nc4ccc(OCC(C)(C)C)nc4)c3OC[C@@H]2CO)nc1 [Example 1-4, (S)-4-(5-picoline-2-yl)-3-hydroxymethyl-N-[2-(2,2-dimethylpropyloxy)pyridine-5-yl]-3,4-dihydro-2H-benzo[1,4]oxazine-8-carboxamide]
